Source: the CheMixHub viscosity set
“And” between values parts separate entries of the source, which are not always exact repeats. Identical values can stand only once. ± gives the uncertainty stated by the source.

Assay: xn = mol fraction of the nth substance listed

COc1ccccc1 + c1ccccc1
101.33 kPa
Conditions	viscosity
293.15 K, x1 = 0.0945	0.7297 ± 0.038 mPa·s
293.15 K, x1 = 0.1951	0.7551 ± 0.04 mPa·s
293.15 K, x1 = 0.2984	0.8001 ± 0.042 mPa·s
293.15 K, x1 = 0.3942	0.8413 ± 0.044 mPa·s
293.15 K, x1 = 0.5178	0.9017 ± 0.047 mPa·s
293.15 K, x1 = 0.6157	0.9434 ± 0.049 mPa·s
293.15 K, x1 = 0.6574	0.9641 ± 0.051 mPa·s
293.15 K, x1 = 0.8116	1.052 ± 0.055 mPa·s
293.15 K, x1 = 0.906	1.097 ± 0.058 mPa·s
298.15 K, x1 = 0.0945	0.6765 ± 0.036 mPa·s
298.15 K, x1 = 0.1	0.635 ± 0.017 mPa·s
298.15 K, x1 = 0.1025	0.6396 ± 0.017 mPa·s
298.15 K, x1 = 0.1951	0.7095 ± 0.037 mPa·s
298.15 K, x1 = 0.2	0.671 ± 0.013 mPa·s and 0.671 ± 0.018 mPa·s
298.15 K, x1 = 0.2004	0.6806 ± 0.018 mPa·s
298.15 K, x1 = 0.2984	0.7437 ± 0.039 mPa·s
298.15 K, x1 = 0.3003	0.7121 ± 0.019 mPa·s
298.15 K, x1 = 0.3942	0.7772 ± 0.041 mPa·s
298.15 K, x1 = 0.4	0.742 ± 0.02 mPa·s
298.15 K, x1 = 0.402	0.7553 ± 0.02 mPa·s
298.15 K, x1 = 0.4985	0.7849 ± 0.021 mPa·s
298.15 K, x1 = 0.5	0.782 ± 0.016 mPa·s and 0.782 ± 0.021 mPa·s
298.15 K, x1 = 0.5178	0.8397 ± 0.044 mPa·s
298.15 K, x1 = 0.6	0.821 ± 0.022 mPa·s
298.15 K, x1 = 0.6157	0.88 ± 0.046 mPa·s
298.15 K, x1 = 0.6574	0.9047 ± 0.048 mPa·s
298.15 K, x1 = 0.699	0.8709 ± 0.023 mPa·s
298.15 K, x1 = 0.8	0.907 ± 0.025 mPa·s
298.15 K, x1 = 0.805	0.9112 ± 0.024 mPa·s
298.15 K, x1 = 0.8116	0.9812 ± 0.051 mPa·s
298.15 K, x1 = 0.9013	0.9506 ± 0.025 mPa·s
303.15 K, x1 = 0.1025	0.6033 ± 0.016 mPa·s
303.15 K, x1 = 0.2004	0.6433 ± 0.017 mPa·s
303.15 K, x1 = 0.3003	0.6712 ± 0.018 mPa·s
303.15 K, x1 = 0.402	0.7045 ± 0.019 mPa·s
303.15 K, x1 = 0.4985	0.738 ± 0.019 mPa·s
303.15 K, x1 = 0.5991	0.7765 ± 0.021 mPa·s
303.15 K, x1 = 0.699	0.8121 ± 0.022 mPa·s
303.15 K, x1 = 0.805	0.8545 ± 0.023 mPa·s
303.15 K, x1 = 0.9013	0.8883 ± 0.024 mPa·s
308.15 K, x1 = 0.1	0.556 ± 0.015 mPa·s
308.15 K, x1 = 0.1025	0.5736 ± 0.015 mPa·s
308.15 K, x1 = 0.2	0.587 ± 0.016 mPa·s
308.15 K, x1 = 0.2004	0.6196 ± 0.016 mPa·s
308.15 K, x1 = 0.3003	0.6447 ± 0.017 mPa·s
308.15 K, x1 = 0.4	0.649 ± 0.018 mPa·s
308.15 K, x1 = 0.402	0.675 ± 0.018 mPa·s
308.15 K, x1 = 0.4985	0.7086 ± 0.019 mPa·s
308.15 K, x1 = 0.5	0.68 ± 0.018 mPa·s
308.15 K, x1 = 0.5991	0.7422 ± 0.02 mPa·s
308.15 K, x1 = 0.6	0.715 ± 0.019 mPa·s
308.15 K, x1 = 0.699	0.7763 ± 0.021 mPa·s
308.15 K, x1 = 0.8	0.785 ± 0.021 mPa·s
308.15 K, x1 = 0.805	0.8167 ± 0.022 mPa·s
308.15 K, x1 = 0.9013	0.8509 ± 0.023 mPa·s
313.15 K, x1 = 0.1025	0.5191 ± 0.014 mPa·s
313.15 K, x1 = 0.2004	0.5555 ± 0.015 mPa·s
313.15 K, x1 = 0.3003	0.5884 ± 0.016 mPa·s
313.15 K, x1 = 0.402	0.6099 ± 0.016 mPa·s
313.15 K, x1 = 0.4985	0.6337 ± 0.017 mPa·s
313.15 K, x1 = 0.5991	0.669 ± 0.018 mPa·s
313.15 K, x1 = 0.699	0.7007 ± 0.018 mPa·s
313.15 K, x1 = 0.805	0.7318 ± 0.019 mPa·s
313.15 K, x1 = 0.9013	0.7626 ± 0.02 mPa·s
318.15 K, x1 = 0.1	0.489 ± 0.013 mPa·s
318.15 K, x1 = 0.2	0.517 ± 0.014 mPa·s
318.15 K, x1 = 0.4	0.57 ± 0.015 mPa·s
318.15 K, x1 = 0.5	0.597 ± 0.016 mPa·s
318.15 K, x1 = 0.6	0.626 ± 0.017 mPa·s
318.15 K, x1 = 0.8	0.684 ± 0.019 mPa·s
323.15 K, x1 = 0.1	0.46 ± 0.012 mPa·s
323.15 K, x1 = 0.2	0.485 ± 0.0097 mPa·s and 0.485 ± 0.013 mPa·s
323.15 K, x1 = 0.4	0.533 ± 0.014 mPa·s
323.15 K, x1 = 0.5	0.559 ± 0.011 mPa·s and 0.559 ± 0.015 mPa·s
323.15 K, x1 = 0.6	0.585 ± 0.016 mPa·s
323.15 K, x1 = 0.8	0.64 ± 0.017 mPa·s

c1ccc2ccccc2c1 + c1ccccc1
Conditions	viscosity
293.15 K, 101 kPa, x1 = 0.006242	0.653 ± 0.023 mPa·s
293.15 K, 101 kPa, x1 = 0.01216	0.66 ± 0.023 mPa·s
293.15 K, 101 kPa, x1 = 0.02495	0.674 ± 0.024 mPa·s
298.15 K, 101 kPa, x1 = 0.051	0.6565 ± 0.017 mPa·s
298.15 K, 101 kPa, x1 = 0.1121	0.7261 ± 0.019 mPa·s
298.15 K, 101 kPa, x1 = 0.1538	0.7707 ± 0.02 mPa·s
298.15 K, 101 kPa, x1 = 0.1979	0.8263 ± 0.022 mPa·s
298.15 K, 101 kPa, x1 = 0.2398	0.8764 ± 0.023 mPa·s
298.15 K, 101 kPa, x1 = 0.2476	0.8712 ± 0.022 mPa·s
298.15 K, 101 kPa, x1 = 0.2693	0.9178 ± 0.024 mPa·s
298.15 K, 101.33 kPa, x1 = 0.0282	0.6309 ± 0.0063 mPa·s
298.15 K, 101.33 kPa, x1 = 0.069	0.6732 ± 0.0066 mPa·s
298.15 K, 101.33 kPa, x1 = 0.0898	0.6932 ± 0.0068 mPa·s
298.15 K, 101.33 kPa, x1 = 0.1341	0.7423 ± 0.0072 mPa·s
298.15 K, 101.33 kPa, x1 = 0.1587	0.7733 ± 0.0075 mPa·s
298.15 K, 101.33 kPa, x1 = 0.2089	0.833 ± 0.008 mPa·s
298.15 K, 101.33 kPa, x1 = 0.25	0.8712 ± 0.0087 mPa·s
298.15 K, 101.33 kPa, x1 = 0.2533	0.8891 ± 0.0085 mPa·s
303.15 K, 101 kPa, x1 = 0.2476	0.8077 ± 0.02 mPa·s
303.15 K, 101 kPa, x1 = 0.3593	0.9452 ± 0.024 mPa·s
303.15 K, 101.33 kPa, x1 = 0.0282	0.5882 ± 0.0059 mPa·s
303.15 K, 101.33 kPa, x1 = 0.069	0.6269 ± 0.0062 mPa·s
303.15 K, 101.33 kPa, x1 = 0.0898	0.6448 ± 0.0064 mPa·s
303.15 K, 101.33 kPa, x1 = 0.1341	0.6897 ± 0.0068 mPa·s
303.15 K, 101.33 kPa, x1 = 0.1587	0.7181 ± 0.007 mPa·s
303.15 K, 101.33 kPa, x1 = 0.2089	0.7723 ± 0.0075 mPa·s
303.15 K, 101.33 kPa, x1 = 0.25	0.8077 ± 0.0081 mPa·s and 0.8077 ± 0.083 mPa·s
303.15 K, 101.33 kPa, x1 = 0.2533	0.8222 ± 0.0079 mPa·s
303.15 K, 101.33 kPa, x1 = 0.26	0.8211 ± 0.085 mPa·s
303.15 K, 101.33 kPa, x1 = 0.33	0.874 ± 0.09 mPa·s
303.15 K, 101.33 kPa, x1 = 0.36	0.9452 ± 0.0095 mPa·s and 0.9452 ± 0.098 mPa·s
308.15 K, 101 kPa, x1 = 0.2476	0.7485 ± 0.019 mPa·s
308.15 K, 101 kPa, x1 = 0.3593	0.8742 ± 0.022 mPa·s
308.15 K, 101.33 kPa, x1 = 0.25	0.7485 ± 0.0075 mPa·s
308.15 K, 101.33 kPa, x1 = 0.36	0.8742 ± 0.0087 mPa·s
313.15 K, 101 kPa, x1 = 0.006242	0.501 ± 0.02 mPa·s
313.15 K, 101 kPa, x1 = 0.01216	0.505 ± 0.02 mPa·s
313.15 K, 101 kPa, x1 = 0.02495	0.514 ± 0.02 mPa·s
313.15 K, 101 kPa, x1 = 0.2476	0.6983 ± 0.018 mPa·s
313.15 K, 101 kPa, x1 = 0.3593	0.8115 ± 0.02 mPa·s
313.15 K, 101.33 kPa, x1 = 0.0282	0.516 ± 0.0053 mPa·s
313.15 K, 101.33 kPa, x1 = 0.069	0.5478 ± 0.0055 mPa·s
313.15 K, 101.33 kPa, x1 = 0.0898	0.5665 ± 0.0057 mPa·s
313.15 K, 101.33 kPa, x1 = 0.1341	0.6017 ± 0.006 mPa·s
313.15 K, 101.33 kPa, x1 = 0.1587	0.6263 ± 0.0062 mPa·s
313.15 K, 101.33 kPa, x1 = 0.2089	0.6698 ± 0.0066 mPa·s
313.15 K, 101.33 kPa, x1 = 0.25	0.6983 ± 0.007 mPa·s
313.15 K, 101.33 kPa, x1 = 0.2533	0.72 ± 0.007 mPa·s
313.15 K, 101.33 kPa, x1 = 0.36	0.8115 ± 0.0081 mPa·s
318.15 K, 101 kPa, x1 = 0.2476	0.654 ± 0.016 mPa·s
318.15 K, 101 kPa, x1 = 0.3593	0.7546 ± 0.019 mPa·s
318.15 K, 101.33 kPa, x1 = 0.25	0.654 ± 0.0065 mPa·s and 0.654 ± 0.068 mPa·s
318.15 K, 101.33 kPa, x1 = 0.26	0.666 ± 0.069 mPa·s
318.15 K, 101.33 kPa, x1 = 0.33	0.7066 ± 0.073 mPa·s
318.15 K, 101.33 kPa, x1 = 0.36	0.7546 ± 0.0075 mPa·s and 0.7546 ± 0.078 mPa·s
318.15 K, 101.33 kPa, x1 = 0.418	0.817 ± 0.084 mPa·s
323.15 K, 101 kPa, x1 = 0.009498	0.445 ± 0.018 mPa·s
323.15 K, 101 kPa, x1 = 0.02432	0.454 ± 0.018 mPa·s
323.15 K, 101 kPa, x1 = 0.02618	0.456 ± 0.019 mPa·s
323.15 K, 101.33 kPa, x1 = 0.0282	0.4564 ± 0.0048 mPa·s
323.15 K, 101.33 kPa, x1 = 0.069	0.4838 ± 0.005 mPa·s
323.15 K, 101.33 kPa, x1 = 0.0898	0.4993 ± 0.0051 mPa·s
323.15 K, 101.33 kPa, x1 = 0.1341	0.529 ± 0.0054 mPa·s
323.15 K, 101.33 kPa, x1 = 0.1587	0.5509 ± 0.0056 mPa·s
323.15 K, 101.33 kPa, x1 = 0.2089	0.5871 ± 0.0059 mPa·s
323.15 K, 101.33 kPa, x1 = 0.2533	0.6319 ± 0.0063 mPa·s
